Test results reported in patent US7880007B2, “Bicyclic substituted phenyl piperidine modulators of muscarinic receptors” (Vertex Pharmaceuticals Incorporated, priority 2004, dated 2011).

Tests used:
Format in all cases: cell-based
[1] = biological target: T1, M1 muscarinic receptor (Homo sapiens, UniProt P11229); assay: Functional mobilization of intracellular calcium (FLIPR), M1-CHO cells; conditions: for M1 Activity: M1-CHO cells, calcium mobilization (FLIPR)
T1 construct: expressed in transfected cells; host or cells: CHO (M1-CHO)
T1 sequence (P11229 1-460): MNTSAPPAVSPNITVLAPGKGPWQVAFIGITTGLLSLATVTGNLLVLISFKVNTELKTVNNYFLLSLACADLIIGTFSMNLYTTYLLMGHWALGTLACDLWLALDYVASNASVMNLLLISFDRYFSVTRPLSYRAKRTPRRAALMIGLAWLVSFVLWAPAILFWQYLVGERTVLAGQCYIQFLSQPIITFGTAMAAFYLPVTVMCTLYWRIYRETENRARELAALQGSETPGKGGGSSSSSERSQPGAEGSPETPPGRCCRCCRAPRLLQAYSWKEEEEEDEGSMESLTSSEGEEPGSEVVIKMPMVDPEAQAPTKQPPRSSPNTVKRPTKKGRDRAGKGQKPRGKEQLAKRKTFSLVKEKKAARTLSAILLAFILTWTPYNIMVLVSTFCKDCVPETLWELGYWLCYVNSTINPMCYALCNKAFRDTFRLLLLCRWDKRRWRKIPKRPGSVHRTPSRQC
How it was run: (§1)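 Calcium mobilisation read by FLIPR over 60 s (ex 488/em 540 nm) in recombinant muscarinic CHO lines loaded with calcium dye plus 1 mM probenecid. Compounds tested as agonists alone, or as inhibitors against EC80 carbachol after 15 min pre-incubation or co-addition; 0.5% DMSO; efficacy scaled to carbachol maximal response.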

[2] = biological target: T2, M2 muscarinic receptor (Homo sapiens, UniProt P08172); assay: Functional mobilization of intracellular calcium (FLIPR), M2-CHO cells; conditions: for M2 Activity: M2-CHO cells, calcium mobilization (FLIPR)
T2 construct: expressed in transfected cells; host or cells: CHO (M2-CHO)
T2 sequence (P08172 1-466): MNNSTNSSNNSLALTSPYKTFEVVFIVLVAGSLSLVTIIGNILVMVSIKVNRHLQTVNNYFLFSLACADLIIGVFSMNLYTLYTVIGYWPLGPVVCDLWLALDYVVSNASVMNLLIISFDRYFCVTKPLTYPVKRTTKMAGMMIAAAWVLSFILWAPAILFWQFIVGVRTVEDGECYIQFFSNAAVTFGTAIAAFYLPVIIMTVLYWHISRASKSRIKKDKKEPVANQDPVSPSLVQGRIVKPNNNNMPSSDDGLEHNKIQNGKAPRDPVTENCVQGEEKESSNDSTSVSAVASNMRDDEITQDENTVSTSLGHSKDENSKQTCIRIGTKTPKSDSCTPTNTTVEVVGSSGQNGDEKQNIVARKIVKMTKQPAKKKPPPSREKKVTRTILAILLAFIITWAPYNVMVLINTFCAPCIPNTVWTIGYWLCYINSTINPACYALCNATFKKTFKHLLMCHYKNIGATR
How it was run: as §1

[3] = biological target: T3, M3 muscarinic receptor (Homo sapiens, UniProt P20309); assay: Functional mobilization of intracellular calcium (FLIPR), M3-CHO cells; conditions: for M3 Activity: M3-CHO cells, calcium mobilization (FLIPR)
T3 construct: expressed in transfected cells; host or cells: CHO (M3-CHO)
How it was run: as §1

[4] = biological target: T4, M4 muscarinic receptor (Homo sapiens, UniProt P08173); assay: Functional mobilization of intracellular calcium (FLIPR), M4-CHO cells; conditions: for M4 Activity: M4-CHO cells, calcium mobilization (FLIPR)
T4 construct: expressed in transfected cells; host or cells: CHO (M4-CHO)
T4 sequence (P08173 1-479): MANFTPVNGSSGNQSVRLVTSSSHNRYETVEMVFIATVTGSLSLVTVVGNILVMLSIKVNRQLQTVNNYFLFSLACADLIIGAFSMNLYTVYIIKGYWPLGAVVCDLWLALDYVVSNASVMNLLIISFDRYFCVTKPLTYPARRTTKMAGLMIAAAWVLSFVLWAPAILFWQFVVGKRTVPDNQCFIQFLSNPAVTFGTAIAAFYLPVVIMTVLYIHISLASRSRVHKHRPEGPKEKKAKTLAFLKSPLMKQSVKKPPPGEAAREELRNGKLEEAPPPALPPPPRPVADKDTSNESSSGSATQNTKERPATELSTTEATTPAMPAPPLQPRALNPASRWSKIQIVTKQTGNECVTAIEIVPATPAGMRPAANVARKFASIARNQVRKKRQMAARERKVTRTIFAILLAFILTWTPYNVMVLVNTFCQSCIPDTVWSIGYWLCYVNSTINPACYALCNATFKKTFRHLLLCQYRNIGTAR
How it was run: as §1

[5] = 100% efficacy = maximum response obtained with the Carbachol control
[6] = 100% efficacy is the maximum response obtained with the Carbachol control

T3 sequence (P20309 whole entry): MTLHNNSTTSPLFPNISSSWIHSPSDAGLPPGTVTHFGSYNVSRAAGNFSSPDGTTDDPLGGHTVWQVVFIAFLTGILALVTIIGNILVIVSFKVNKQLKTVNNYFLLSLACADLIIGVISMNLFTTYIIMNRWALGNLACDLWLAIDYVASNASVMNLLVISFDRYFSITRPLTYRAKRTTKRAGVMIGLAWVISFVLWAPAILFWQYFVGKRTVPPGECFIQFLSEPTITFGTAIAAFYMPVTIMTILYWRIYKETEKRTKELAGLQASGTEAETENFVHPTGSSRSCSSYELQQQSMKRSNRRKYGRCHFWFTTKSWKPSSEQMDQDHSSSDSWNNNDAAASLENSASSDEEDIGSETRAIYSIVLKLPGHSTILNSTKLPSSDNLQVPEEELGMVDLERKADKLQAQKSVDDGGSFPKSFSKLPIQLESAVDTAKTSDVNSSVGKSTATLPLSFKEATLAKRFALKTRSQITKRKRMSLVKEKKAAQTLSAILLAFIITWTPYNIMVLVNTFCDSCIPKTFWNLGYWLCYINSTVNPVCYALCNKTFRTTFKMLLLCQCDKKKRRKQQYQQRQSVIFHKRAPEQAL

Row | Structure (SMILES) | Emax [1, 5] [%] | Emax [2, 5] [%] | Emax [3, 5] [%] | Emax [4, 5] [%] | Emax [1, 6] [%] | Emax [2, 6] [%] | Emax [3, 6] [%] | Emax [4, 6] [%] | M1 Activity [1] | M2 Activity [2] | M3 Activity [3] | M4 Activity [4]
1 | COc1ccccc1C1CCN(CC2CCOC2)CC1 (centres unmarked) [Compound 369] | 25 to 100 | < 25 | < 25 | 25 to 100 |  |  |  |  | + (activity was measured to be greater than 5.0 μM) | + (activity was measured to be greater than 5.0 μM) | + (activity was measured to be greater than 5.0 μM) | ++ (activity was measured to be from 1.0 μM to 5.0 μM)
2 | CCOC(=O)N1CCC(CN2CCC(c3cc(Cl)ccc3OC)CC2)CC1 [Compound 14] | 25 to 100 | 25 to 100 | < 25 | 25 to 100 |  |  |  |  | +++ (activity was measured to be less than 1.0 μM) | +++ (activity was measured to be less than 1.0 μM) | + (activity was measured to be greater than 5.0 μM) | +++ (activity was measured to be less than 1.0 μM)
3 | COc1ccc(F)cc1C1(OC)CCN(C[C@@H]2C[C@H]3C=C[C@H]2C3)CC1 [Compound 160] | 25 to 100 | < 25 | < 25 | 25 to 100 |  |  |  |  | + (activity was measured to be greater than 5.0 μM) | + (activity was measured to be greater than 5.0 μM) | + (activity was measured to be greater than 5.0 μM) | +++ (activity was measured to be less than 1.0 μM)
4 | CCCC1CCC(N2CCC(F)(c3cc(F)ccc3OC)CC2)CC1 (centres unmarked) [Compound 327] | 25 to 100 | 25 to 100 | < 25 | 25 to 100 |  |  |  |  | ++ (activity was measured to be from 1.0 μM to 5.0 μM) | + (activity was measured to be greater than 5.0 μM) | + (activity was measured to be greater than 5.0 μM) | ++ (activity was measured to be from 1.0 μM to 5.0 μM)
5 | COc1ccccc1C1CCN(CC2=CC[C@@H]3C[C@@H]2C3(C)C)CC1 [Compound 291] | < 25 | < 25 | < 25 | < 25 |  |  |  |  | + (activity was measured to be greater than 5.0 μM) | + (activity was measured to be greater than 5.0 μM) | + (activity was measured to be greater than 5.0 μM) | + (activity was measured to be greater than 5.0 μM)
6 | COc1ccccc1C1CCN(C2CC(C)CC(C)C2)CC1 (centres unmarked) [Compound 34] | < 25 | < 25 | < 25 | < 25 |  |  |  |  | + (activity was measured to be greater than 5.0 μM) | + (activity was measured to be greater than 5.0 μM) | + (activity was measured to be greater than 5.0 μM) | + (activity was measured to be greater than 5.0 μM)
7 | Cc1ccccc1C1(O)CCN(C2CC3CCC2C3)CC1 (centres unmarked) [Compound 252] | < 25 | < 25 |  | < 25 |  |  |  |  | + (activity was measured to be greater than 5.0 μM) | + (activity was measured to be greater than 5.0 μM) | + (activity was measured to be greater than 5.0 μM) | + (activity was measured to be greater than 5.0 μM)
8 | COc1ccc(F)cc1C1(O)CCN(C[C@H]2C[C@H]3C=C[C@H]2C3)CC1 [Compound 340] | 25 to 100 | 25 to 100 | < 25 | 25 to 100 |  |  |  |  | + (activity was measured to be greater than 5.0 μM) | + (activity was measured to be greater than 5.0 μM) | + (activity was measured to be greater than 5.0 μM) | +++ (activity was measured to be less than 1.0 μM)

The next lines start with results.

Row | Emax [1, 5] [%] | Emax [2, 5] [%] | Emax [3, 5] [%] | Emax [4, 5] [%] | Emax [1, 6] [%] | Emax [2, 6] [%] | Emax [3, 6] [%] | Emax [4, 6] [%] | Structure (SMILES) | M1 Activity [1] | M2 Activity [2] | M3 Activity [3] | M4 Activity [4]
9 | < 25 | < 25 | < 25 | < 25 |  |  |  |  | COc1ccc(-c2ccc(C(=O)NCCCO)cc2)cc1C1CCN(C2CCOCC2)CC1 [Compound 184] | + (activity was measured to be greater than 5.0 μM) | + (activity was measured to be greater than 5.0 μM) | + (activity was measured to be greater than 5.0 μM) | + (activity was measured to be greater than 5.0 μM)
10 | 25 to 100 | 25 to 100 | < 25 | 25 to 100 |  |  |  |  | COc1ccc(Cl)cc1C1CCN(C2CCOCC2)CC1 [Compound 249] | + (activity was measured to be greater than 5.0 μM) | + (activity was measured to be greater than 5.0 μM) | + (activity was measured to be greater than 5.0 μM) | +++ (activity was measured to be less than 1.0 μM)
11 | 25 to 100 | < 25 | < 25 | 25 to 100 |  |  |  |  | CCOC(=O)N1CCC(CN2CCC(c3cc(-c4ccc(C(=O)NC)c(Cl)c4)ccc3OC)CC2)CC1 [Compound 298] | ++ (activity was measured to be from 1.0 μM to 5.0 μM) | + (activity was measured to be greater than 5.0 μM) | + (activity was measured to be greater than 5.0 μM) | +++ (activity was measured to be less than 1.0 μM)
12 | < 25 | < 25 | < 25 | 25 to 100 |  |  |  |  | COc1ccc(-c2ccc(C(C)=O)cc2)cc1C1CCN([C@H]2C[C@H]3CC[C@H]2C3)CC1 [Compound 7] | + (activity was measured to be greater than 5.0 μM) | + (activity was measured to be greater than 5.0 μM) | + (activity was measured to be greater than 5.0 μM) | ++ (activity was measured to be from 1.0 μM to 5.0 μM)
13 | < 25 | 25 to 100 | < 25 | 25 to 100 |  |  |  |  | Fc1ccccc1-c1ccccc1C1CCN(C2CC3CC[C@H]2C3)CC1 (stereo in doubt) [Compound 10, 1-((1S,2R,4R)-bicyclo[2.2.1]heptan-2-yl)-4-(2′-fluorobiphenyl-2-yl)piperidine] | + (activity was measured to be greater than 5.0 μM) | + (activity was measured to be greater than 5.0 μM) | + (activity was measured to be greater than 5.0 μM) | ++ (activity was measured to be from 1.0 μM to 5.0 μM)
14 |  |  |  |  | 25 to 100 | < 25 | < 25 | 25 to 100 | COc1ccccc1-c1ccccc1C1CCN([C@H]2C[C@H]3CC[C@H]2C3)CC1 [Compound 420] | + (activity was measured to be greater than 5.0 μM) | + (activity was measured to be greater than 5.0 μM) | + (activity was measured to be greater than 5.0 μM) | ++ (activity was measured to be from 1.0 μM to 5.0 μM)
15 | < 25 | < 25 | < 25 | 25 to 100 |  |  |  |  | CNC(=O)c1ccc(-c2ccc(OC)c(C3CCN(C4CCCCC4)CC3)c2)cc1 [Compound 36] | + (activity was measured to be greater than 5.0 μM) | + (activity was measured to be greater than 5.0 μM) | + (activity was measured to be greater than 5.0 μM) | ++ (activity was measured to be from 1.0 μM to 5.0 μM)
